How the values were obtained:
Type in all cases: biochemical
[1] = molecular target: T1, HDAC1 enzyme (Homo sapiens, UniProt Q13547); experiment: HDAC1/6 Enzyme Inhibitory Assay (HDAC-Glo I/II Assay kit), HDAC1; details: 1 μM test compound, wells without enzyme = 100% inhibition; for inhibition at 1 µM: read-out: HDAC1 inhibitory rate (%) (1 μM)
T1 construct: transducing full length HDAC1 and HDAC6 genes into Sf-9 insect cells; GST; purchased SignalChem; host or cells: Sf-9 insect cells
In short: (§1)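 Full-length human HDAC1 or HDAC6, expressed in Sf-9 cells and GST-purified, was preincubated with compound for 60 min at room temperature in Tris-HCl pH 7.5 buffer with MgCl2, KCl, NaCl, glutathione and Tween-20. HDAC-Glo substrate-developer was then added, and luminescence was read after 20 min. Inhibition was referenced to no-enzyme wells as 100%.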

[2] = molecular target: T2, HDAC9 enzyme (Homo sapiens, UniProt Q9UKV0); experiment: HDAC9 Enzyme Inhibitory Assay (HDAC-Glo class IIa); details: 1 μM test compound, wells without enzyme = 100% inhibition; for inhibition at 1 µM: read-out: HDAC9 inhibitory rate (%) (1 μM)
T2 construct: transducing full length HDAC9 gene into Sf-9 insect cells; made in house; host or cells: Sf-9 insect cells
T2 sequence (Q9UKV0 whole entry, species assumed): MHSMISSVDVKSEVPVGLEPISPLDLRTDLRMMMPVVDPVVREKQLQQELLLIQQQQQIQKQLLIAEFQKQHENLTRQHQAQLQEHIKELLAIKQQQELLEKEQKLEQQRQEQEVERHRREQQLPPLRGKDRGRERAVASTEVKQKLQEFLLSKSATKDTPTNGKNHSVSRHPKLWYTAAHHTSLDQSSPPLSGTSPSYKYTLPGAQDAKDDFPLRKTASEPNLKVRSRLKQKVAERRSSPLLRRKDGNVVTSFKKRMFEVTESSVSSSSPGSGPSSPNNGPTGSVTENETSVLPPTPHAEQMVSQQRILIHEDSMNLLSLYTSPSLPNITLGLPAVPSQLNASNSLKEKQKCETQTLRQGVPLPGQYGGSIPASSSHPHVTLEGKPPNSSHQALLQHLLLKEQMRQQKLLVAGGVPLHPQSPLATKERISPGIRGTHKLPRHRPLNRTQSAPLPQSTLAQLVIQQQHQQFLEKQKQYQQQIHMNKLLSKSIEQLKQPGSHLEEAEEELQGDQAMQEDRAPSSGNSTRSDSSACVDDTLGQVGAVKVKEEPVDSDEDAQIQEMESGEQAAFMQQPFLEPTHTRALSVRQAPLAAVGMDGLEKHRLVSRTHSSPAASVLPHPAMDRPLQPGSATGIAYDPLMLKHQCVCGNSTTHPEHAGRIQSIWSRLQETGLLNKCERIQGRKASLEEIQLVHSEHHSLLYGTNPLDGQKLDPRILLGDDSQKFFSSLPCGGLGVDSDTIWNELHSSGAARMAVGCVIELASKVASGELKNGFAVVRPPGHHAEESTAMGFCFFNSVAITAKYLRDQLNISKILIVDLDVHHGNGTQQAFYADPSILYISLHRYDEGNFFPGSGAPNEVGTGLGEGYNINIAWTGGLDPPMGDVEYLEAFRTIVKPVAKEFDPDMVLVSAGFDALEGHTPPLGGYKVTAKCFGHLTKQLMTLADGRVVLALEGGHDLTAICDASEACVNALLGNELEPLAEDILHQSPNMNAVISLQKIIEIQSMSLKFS
In short: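 Full-length human HDAC9 from Sf-9 cells, Ni-NTA purified, preincubated with compound for 60 min at room temperature in Tris-HCl pH 7.5 buffer (MgCl2, KCl, NaCl, glutathione, Tween-20). HDAC-Glo class IIa substrate-developer added; luminescence read after 20 min, with no-enzyme wells defining 100% inhibition.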

[3] = molecular target: T3, HDAC6 enzyme (Homo sapiens, UniProt Q9UBN7); experiment: HDAC1/6 Enzyme Inhibitory Assay (HDAC-Glo I/II Assay kit), HDAC6; details: 1 μM test compound, wells without enzyme = 100% inhibition; for inhibition at 1 µM: read-out: HDAC6 inhibitory rate (%) (1 μM)
T3 construct: transducing full length HDAC1 and HDAC6 genes into Sf-9 insect cells; GST; purchased SignalChem; host or cells: Sf-9 insect cells
T3 sequence (Q9UBN7 1-1215): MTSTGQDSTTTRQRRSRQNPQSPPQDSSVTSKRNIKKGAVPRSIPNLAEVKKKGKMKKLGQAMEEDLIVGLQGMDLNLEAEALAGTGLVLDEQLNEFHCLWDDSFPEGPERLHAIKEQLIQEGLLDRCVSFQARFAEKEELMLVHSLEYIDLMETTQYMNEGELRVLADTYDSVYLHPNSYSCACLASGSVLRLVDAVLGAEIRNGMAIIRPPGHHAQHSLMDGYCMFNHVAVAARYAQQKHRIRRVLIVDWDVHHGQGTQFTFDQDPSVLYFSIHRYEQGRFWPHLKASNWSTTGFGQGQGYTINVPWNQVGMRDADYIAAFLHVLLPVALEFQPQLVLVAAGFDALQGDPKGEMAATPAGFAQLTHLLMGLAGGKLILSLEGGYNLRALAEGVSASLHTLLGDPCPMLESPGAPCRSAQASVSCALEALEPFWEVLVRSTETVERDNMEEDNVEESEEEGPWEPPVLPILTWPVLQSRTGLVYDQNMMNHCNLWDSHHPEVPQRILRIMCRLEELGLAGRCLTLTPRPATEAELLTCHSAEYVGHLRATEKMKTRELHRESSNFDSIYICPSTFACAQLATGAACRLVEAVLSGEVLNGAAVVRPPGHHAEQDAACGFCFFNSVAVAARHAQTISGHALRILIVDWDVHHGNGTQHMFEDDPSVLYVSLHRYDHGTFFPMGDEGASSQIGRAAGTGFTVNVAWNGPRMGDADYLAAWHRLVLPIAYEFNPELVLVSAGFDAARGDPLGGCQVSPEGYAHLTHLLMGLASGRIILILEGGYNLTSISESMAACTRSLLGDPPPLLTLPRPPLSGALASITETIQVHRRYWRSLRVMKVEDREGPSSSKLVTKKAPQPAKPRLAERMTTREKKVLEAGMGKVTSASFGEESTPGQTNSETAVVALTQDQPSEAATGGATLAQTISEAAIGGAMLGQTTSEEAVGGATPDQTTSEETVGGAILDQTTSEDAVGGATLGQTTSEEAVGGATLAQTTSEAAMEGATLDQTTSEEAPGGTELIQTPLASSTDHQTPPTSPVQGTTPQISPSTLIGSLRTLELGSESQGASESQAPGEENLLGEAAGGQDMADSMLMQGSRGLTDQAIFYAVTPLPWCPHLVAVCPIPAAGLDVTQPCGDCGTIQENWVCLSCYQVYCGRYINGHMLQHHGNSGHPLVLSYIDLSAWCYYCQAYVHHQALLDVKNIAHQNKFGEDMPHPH
In short: as §1

T1 sequence (Q13547 whole entry): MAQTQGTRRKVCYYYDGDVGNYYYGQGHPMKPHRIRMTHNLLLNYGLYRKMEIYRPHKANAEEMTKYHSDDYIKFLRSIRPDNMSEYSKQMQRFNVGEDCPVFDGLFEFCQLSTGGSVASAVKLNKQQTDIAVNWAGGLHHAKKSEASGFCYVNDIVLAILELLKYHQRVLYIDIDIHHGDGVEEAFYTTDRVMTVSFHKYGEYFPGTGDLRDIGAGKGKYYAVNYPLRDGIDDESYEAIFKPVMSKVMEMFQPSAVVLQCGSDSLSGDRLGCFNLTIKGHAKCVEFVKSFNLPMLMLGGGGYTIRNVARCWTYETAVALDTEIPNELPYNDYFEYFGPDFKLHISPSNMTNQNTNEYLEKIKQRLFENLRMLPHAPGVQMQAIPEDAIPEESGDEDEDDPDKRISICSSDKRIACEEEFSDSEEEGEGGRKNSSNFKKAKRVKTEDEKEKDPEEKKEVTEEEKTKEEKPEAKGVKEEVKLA

inhibition at 1 µM [1] [%] | inhibition at 1 µM [2] [%] | inhibition at 1 µM [3] [%] | HDAC1 inhibitory rate (%) (1 μM) [1] | HDAC9 inhibitory rate (%) (1 μM) [2] | HDAC6 inhibitory rate (%) (1 μM) ([3]; 1 µM) | HDAC6 inhibitory rate (%) (1 μM) [3] | Compound
46 | 89 | 98 |  |  |  |  | C[C@H](c1ccccc1)N1CC[C@@H]2CC[C@@H](N3Cc4ccc(-c5noc(C(F)(F)F)n5)cc4C3=O)[C@@H]21 [Example 62, 2-((3aS,6R,6aR)-1-((1R)-1-phenylethyl)octahydrocyclopenta[b]pyrrol-6-yl)-6-(5-(trifluoromethyl)-1,2,4-oxadiazol-3-yl)isoindolin-1-one]
37 | 77 | 92 |  |  |  |  | O=C1c2cc(-c3noc(C(F)(F)F)n3)ccc2CN1[C@@H]1CC[C@@H]1Cc1ccccc1 (relative stereo) [Example 60, 2-(cis-2-benzylcyclobutyl)-6-(5-(trifluoromethyl)-1,2,4-oxadiazol-3-yl)isoindolin-1-one]
8 | 80 | 93 |  |  |  |  | CC(=O)N1CC[C@H](N2Cc3ccc(-c4noc(C(F)(F)F)n4)cc3C2=O)[C@H](c2ccccc2)C1 [Example 21, 2-((3R,4S)-1-acetyl-3-phenylpiperidin-4-yl)-6-(5-(trifluoromethyl)-1,2,4-oxadiazol-3-yl)isoindolin-1-one]
 |  |  | 78 | 95 |  | 99 | O=C1c2cc(-c3noc(C(F)(F)F)n3)ccc2CN1[C@@H]1CCOC[C@H]1c1ccccc1 (relative stereo) [Example 5, trans-2-(3-phenyltetrahydro-2H-pyran-4-yl)-6-(5-(trifluoromethyl)-1,2,4-oxadiazol-3-yl)isoindolin-1-one]
9 | 73 | 36 |  |  |  |  | CC(C)(C)OC(=O)N1CC[C@@H](c2ccccc2)[C@H](N2Cc3cc(-c4noc(C(F)(F)F)n4)ccc3C2=O)C1 (relative stereo) [Example 71, tert-butyl trans-3-(1-oxo-5-(5-(trifluoromethyl)-1,2,4-oxadiazol-3-yl)-1,3-dihydro-2H-isoindol-2-yl)-4-phenylpiperidine-1-carboxylate]

The next lines start with the compound.

Compound | inhibition at 1 µM [1] [%] | inhibition at 1 µM [2] [%] | inhibition at 1 µM [3] [%] | HDAC1 inhibitory rate (%) (1 μM) [1] | HDAC9 inhibitory rate (%) (1 μM) [2] | HDAC6 inhibitory rate (%) (1 μM) ([3]; 1 µM) | HDAC6 inhibitory rate (%) (1 μM) [3]
O=C(N[C@@H]1CCCC[C@H]1N1Cc2ccc(-c3noc(C(F)(F)F)n3)cc2C1=O)N1CCOCC1 [Example 139, N-((1R,2R)-2-(1-oxo-6-(5-(trifluoromethyl)-1,2,4-oxadiazol-3-yl)-1,3-dihydro-2H-isoindol-2-yl)cyclohexyl)morpholine-4-carboxamide] | 5 | 25 | 98 |  |  |  | 
O=C(N[C@H]1CCOC[C@H]1N1Cc2ccc(-c3noc(C(F)(F)F)n3)cc2C1=O)C1CC1(F)F (single isomer, unassigned) [Example 214, (1R) or (1S)-2,2-difluoro-N-((3S,4S)-3-(1-oxo-6-(5-(trifluoromethyl)-1,2,4-oxadiazol-3-yl)-1,3-dihydro-2H-isoindol-2-yl)tetrahydro-2H-pyran-4-yl)cyclopropanecarboxamide] |  |  |  | 68 | 97 | 98 | 
CC(C)(C)OC(=O)N1CC(C)(C(=O)N[C@@H]2CCCC[C@H]2N2Cc3ccc(-c4noc(C(F)(F)F)n4)cc3C2=O)C1 [Example 197, tert-butyl 3-methyl-3-(((1R,2R)-2-(1-oxo-6-(5-(trifluoromethyl)-1,2,4-oxadiazol-3-yl)-1,3-dihydro-2H-isoindol-2-yl)cyclohexyl)carbamoyl)azetidine-1-carboxylate] | 6 | 48 | 100 |  |  |  | 
O=C(c1ccccc1)N1CCC(N2Cc3ncc(-c4noc(C(F)(F)F)n4)cc3C2=O)CC1 [Example 67, 6-(1-benzoylpiperidin-4-yl)-3-(5-(trifluoromethyl)-1,2,4-oxadiazol-3-yl)-6,7-dihydro-5H-pyrrolo[3,4-b]pyridin-5-one] | 13 | 81 | 99 |  |  |  | 
O=C(N[C@@H]1COCC[C@H]1N1Cc2ccc(-c3noc(C(F)(F)F)n3)cc2C1=O)C1CC1 [Example 82, N-((3S,4R)-4-(1-oxo-6-(5-(trifluoromethyl)-1,2,4-oxadiazol-3-yl)-1,3-dihydro-2H-isoindol-2-yl)tetrahydro-2H-pyran-3-yl)cyclopropanecarboxamide] | 10 | 61 | 99 |  |  |  | 
CC1(C(=O)N[C@@H]2CCCC[C@H]2N2Cc3ccc(-c4noc(C(F)(F)F)n4)cc3C2=O)COC1 [Example 42, 3-methyl-N-((1R,2R)-2-(1-oxo-6-(5-(trifluoromethyl)-1,2,4-oxadiazol-3-yl)-1,3-dihydro-2H-isoindol-2-yl)cyclohexyl)oxetane-3-carboxamide] | 15 | 41 | 100 |  |  |  | 
O=C1CCC(C(=O)N[C@@H]2CCCC[C@H]2N2Cc3ccc(-c4noc(C(F)(F)F)n4)cc3C2=O)=NN1 [Example 118, 6-oxo-N-((1R,2R)-2-(1-oxo-6-(5-(trifluoromethyl)-1,2,4-oxadiazol-3-yl)-1,3-dihydro-2H-isoindol-2-yl)cyclohexyl)-1,4,5,6-tetrahydropyridazine-3-carboxamide] | 5 | 46 | 98 |  |  |  | 
CC(C)(C)N1CC(C(=O)N[C@@H]2CCCC[C@H]2N2Cc3ccc(-c4noc(C(F)(F)F)n4)cc3C2=O)C1 [Example 114, 1-tert-butyl-N-((1R,2R)-2-(1-oxo-6-(5-(trifluoromethyl)-1,2,4-oxadiazol-3-yl)-1,3-dihydro-2H-isoindol-2-yl)cyclohexyl)azetidine-3-carboxamide] | 1 | 11 | 39 |  |  |  | 
CC1(C(=O)N[C@@H]2CCCC[C@H]2N2Cc3ccc(-c4noc(C(F)(F)F)n4)cc3C2=O)CCC1 [Example 174, 1-methyl-N-((1R,2R)-2-(1-oxo-6-(5-(trifluoromethyl)-1,2,4-oxadiazol-3-yl)-1,3-dihydro-2H-isoindol-2-yl)cyclohexyl)cyclobutanecarboxamide] | 8 | 60 | 90 |  |  |  | 
O=C(N[C@@H]1COCC[C@H]1N1Cc2ccc(-c3noc(C(F)(F)F)n3)cc2C1=O)[C@H]1CC1(F)F [Example 150, (1R)-2,2-difluoro-N-((3S,4R)-4-(1-oxo-6-(5-(trifluoromethyl)-1,2,4-oxadiazol-3-yl)-1,3-dihydro-2H-isoindol-2-yl)tetrahydro-2H-pyran-3-yl)cyclopropanecarboxamide] | 13 | 85 | 100 |  |  |  | 
Cn1cnc(C(=O)N[C@@H]2CCCC[C@H]2N2Cc3ccc(-c4noc(C(F)(F)F)n4)cc3C2=O)c1 [Example 101, 1-methyl-N-((1R,2R)-2-(1-oxo-6-(5-(trifluoromethyl)-1,2,4-oxadiazol-3-yl)-1,3-dihydro-2H-isoindol-2-yl)cyclohexyl)-1H-imidazole-4-carboxamide] | 12 | 68 | 98 |  |  |  | 
O=C(N[C@@H]1CCCC[C@H]1N1Cc2ccc(-c3noc(C(F)(F)F)n3)cc2C1=O)N1CC2CCC(C1)O2 [Example 146, N-((1R,2R)-2-(1-oxo-6-(5-(trifluoromethyl)-1,2,4-oxadiazol-3-yl)-1,3-dihydro-2H-isoindol-2-yl)cyclohexyl)-8-oxa-3-azabicyclo[3.2.1]octane-3-carboxamide] | 2 | 23 | 99 |  |  |  | 

Reference: patent publication US10308643B2, “Heterocyclic compound” (Takeda Pharmaceutical Company Limited, priority 2015, dated 2019)
